Reference: US20240025849A1 (MAX DELBRÜCK-CENTRUM FÜR MOLEKULARE MEDIZIN IN DER …, priority 2020, published 2024)
Where “and” joins values, the source holds several entries; their conditions need not be identical. Equal values may be shown once. Entries after “also recorded” stand apart in the source; their conditions may differ.

Assays:
Microglial cells = assay: Microchemotaxis assay (Boyden chamber): chemotaxis and motility; format: cell-based, mouse
Procedure: Microchemotaxis assay. The effect of the compound on directed migration and general motility was tested using a 48-well microchemotaxis Boyden chamber (Neuroprobe, Gaithersburg, USA). Upper and lower wells were separated by polycarbonate filter (8 μm pore size; Poretics). Microglial cells (2-4×10^4 cells) in 50 μl plain medium were added to the upper compartment. In addition, 2.5 μM of compound in DMSO, 125×10-5 v/v DMSO respectively, and/or 100 μM ATP were added to the upper and/or lower chamber, as shown in FIG. 3A. Plain medium was used as a control. The chamber was incubated at 37° C. and 5% CO2 for 6 h. Cells remaining on the upper surface of the membrane were removed by wiping, and cells in the lower compartment were fixed in methanol for 10 min and subjected to Diff-Quik stain (Medion Grifols Diagnostics AG, Dudingen, Switzerland). The rate of microglial migration was calculated by counting cells in four random fields of each well using a 20×bright-field objective. All data were normalised to ATP induced chemotaxis.

[1] = test system: primary cultured neonatal microglia; assay: Cytokine release (IL1β, IL6, TNFα) ELISA in microglia; format: cell-based, mouse
Procedure: Primary cultured neonatal microglia. For preparation of cultured neonatal microglia, P0-P3 mice were used. 10 brains were extracted, meninges and cerebellum were removed and put on ice with Hank's balanced salt solution (HBSS). The dissected brains were washed 3 times before adding 400 μL trypsin (0.1 mg/L) and DNAse (5 μg/L) in phosphate buffered saline (PBS). After 2 min of incubation with this solution, the reaction was blocked by adding plain medium. After removal of the medium, 1 mg DNAse was added and the cells were mechanically dissociated, with a Pasteur pipette followed by a glass pipette. The cells were centrifuged for 10 min at 129 g at 4° C. The supernatant was discarded. The pellet was resuspended in plain medium and plated (2.5 brains/flask) in Poly-L-Lysine coated flasks. The cells were washed after 2 days with PBS and incubated for another 7 days in plain medium. Afterwards the medium was replaced by plain medium with 33% L929 conditioned medium. After 2 days, cells were harvested by shaking them for 30 min at 150 rpm. The supernatant was centrifuged for 10 min at 129 g at 4° C. The cells were plated into a 96 well plate (100 000 cells/well, 200 μL medium per well). This procedure could be repeated 2 times with a 2 day interval.
(§1) Enzyme-linked immunosorbent assay (ELISA). Cells were seeded according to the protocols described above, after compounds and stimuli were added, the supernatant was collected, centrifuged (500 g, 5 minutes) and stored at −20° C. until analysed. The following kits from Bio-Techne (Minneapolis, USA) were used to detect IL1β, IL6 and TNFα: ELISA Mouse IL-1β/IL-1F2 Duo Set, ELISA Mouse IL-6, ELISA Mouse TNFα. ELISA assays were performed according to the manufacturers protocol.

[2] = test system: bone marrow derived macrophages; assay: Cytokine release (IL1β, IL6, TNFα) ELISA in macrophages; format: cell-based, mouse; settings: 1 μg/mL LPS 48 hours
Procedure: Primary cultured macrophages. Bone marrow macrophages were isolated from C57BL/6 adult mice (P49-56) as previously described (Marim et al., 2010). In summary, mice were killed by cervical dislocation and the femurs were removed by cutting through the tibia near the pelvic bone and below the knee. Any muscle connected to the bone was carefully removed. Ice cold sterile PBS was slowly flushed through the bone and the contents were collected in a sterile 15 mL polypropylene tube on ice. After centrifugation for 10 min at 200 g at 4° C., red blood cells were lysed by adding 3-10 mL ammonium chloride solution. After a 3-5 min recovery period, the suspension was centrifuged for 10 min at 200 g at 4° C. and the supernatant was removed. Cells were plated in a 10 cm dish with plain medium containing 10 ng/mL M-CSF and cultured for 7 days to allow differentiation. 50 000 cells were plated with 200 μL medium per well in a 96 well plate.
as §1

[3] = test system: oligodendrocyte cell line OLN-93; assay: AlamarBlue assay in OLN-93 cells; format: cell-based; settings: 2.5 μM C1, 48 hours, unstimulated
Procedure: Cell culture of immortalized cell lines: microglia cell line BV2, and oligodendrocyte cell line OLN-93. The immortalized murine microglia cell line BV2 (Blasi et al., 1990) and the oligodendrocyte cell line OLN-93 (Richter-Landsberg and Heinrich, 1996) were incubated in T75 flasks with plain medium. The cells were split every 2 to 3 days at the dilution 1:10 before they reached confluence. To do so, the cells were washed twice with PBS, followed by up to 5 min of trypsination. The trypsination was stopped using plain medium. The cells were centrifuged at 300 g for 10 min at 4° C., the supernatant was discarded, and the cells were resuspended in new medium and seeded into a new flask.
AlamarBlue assay. Cells were seeded according to the protocols described above, after compounds and stimuli were added, the cells were washed once with HBSS (37° C.) and 100 μl of a 1:10 AlamarBlue (Thermo Fisher Scientific) dilution in plain medium was added. The conversion of resazurin to resorufin was measured by absorbance (absorbance wavelength of 570 nm and a reference wavelength of 600 nm) after 3 hours.
The inventors evaluated the metabolic activity, proliferation and cell death of primary cultured neonatal microglia, primary cultured neonatal astrocytes and the oligodendrocyte cell line OLN-93 under physiological conditions. […]

[4] = 1 h C1, then 1 μg/ml LPS 48 hours
[5] = unstimulated microglia, 48 hours

SMILES: COc1ccc(NC(=O)C(NC(=O)C2CCCN2C(=O)OCc2ccccc2)c2ccc(OC)cc2)cc1 (centres unmarked) [C1]
- ATP induced motility (Microglial cells; 2.5 μM C1, 100 μM ATP): neither changed; also recorded: not altered
- microglial motility (Microglial cells; 2.5 μM C1 on both sides of the chamber): reduced in the presence of C1 significantly compared to plain medium (p=0.0018) but not to DMSO; also recorded: did not significantly affect motility compared to the DMSO control, however it did, when compared to the plain medium control
- chemotaxis (cells migrating towards C1) (Microglial cells; gradient of 2.5 μM C1, 6 h): increased chemotaxis significantly; also recorded: significantly higher
- LPS induced IL1β release ([1]; 0.025, 0.25, 2.5 μM C1, 1 μg/ml LPS 48 hours): exceeded the LPS-induced release; also recorded: exceeds the stimulated control significantly
- LPS induced IL6 release [1, 4]: no effect; also recorded: did not show a reduction
- LPS induced TNFα release [1, 4]: no effect; also recorded: did not show a reduction
- IL1β release, C1 alone [1, 5]: did not show any significant changes; also recorded: does not alter
- IL6 release, C1 alone [1, 5]: did not show any significant changes; also recorded: does not alter
- TNFα release, C1 alone [1, 5]: did not show any significant changes; also recorded: does not alter
- LPS induced release of IL1β [2]: not changed; also recorded: Neither the treatment with C1 nor with DMSO showed any significant changes
- LPS induced release of IL6 [2]: not changed; also recorded: Neither the treatment with C1 nor with DMSO showed any significant changes
- reduction of TNFα release ([2]; 2.5 μM (highest concentration) C1): 9% and 5%
- release of TNFα, % of positive control ([2]; 2.5 μM C1): 91%
- metabolic activity of OLN-93 cells [3]: increased the metabolic activity in oligodendrocytes compared to DMSO (p=0.0431) but not compared to plain medium; also recorded: not affected
